The values below are quoted from earlier work in patent US20080213414A1, “Compositions containing phaseolus vulgaris extract and alpinia officinarum extract for the prevention and treatment of obesity and type II diabetes” (priority 2005, published 2008).

The conditions of data set [1]: without gastroprotection.
The next data set deals with T1, pancreatic lipase (Homo sapiens, UniProt P16233).
T1 sequence (P16233 17-465): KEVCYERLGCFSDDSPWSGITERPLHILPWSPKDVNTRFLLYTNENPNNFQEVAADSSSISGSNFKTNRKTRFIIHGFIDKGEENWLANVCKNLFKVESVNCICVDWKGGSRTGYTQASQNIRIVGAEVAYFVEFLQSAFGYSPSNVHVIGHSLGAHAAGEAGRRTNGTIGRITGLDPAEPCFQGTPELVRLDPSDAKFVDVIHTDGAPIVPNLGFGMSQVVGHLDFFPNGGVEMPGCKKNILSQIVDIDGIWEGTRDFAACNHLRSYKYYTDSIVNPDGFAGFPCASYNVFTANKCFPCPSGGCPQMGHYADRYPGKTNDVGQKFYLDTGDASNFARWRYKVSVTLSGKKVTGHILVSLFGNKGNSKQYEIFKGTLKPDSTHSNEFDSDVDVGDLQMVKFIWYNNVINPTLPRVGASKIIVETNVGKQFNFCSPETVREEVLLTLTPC

For `COc1c(-c2ccccc2)oc2cc(O)cc(O)c2c1=O` [3-methylethergalangin], the “stability to the gastric juices” value in data set [1] was “not broken down by the gastric juices”. The “IC50, inhibition of pancreatic lipase” value at pancreatic lipase is on record as “around 1 mg/ml”.
